Measured values taken from EPA's ToxValDB 9.5.
Converted amounts (≈) assume the structure as drawn. “And” between values parts separate entries of the source, which are not always exact repeats. Equal entries are not always repeated.

Tests used:
[1] = system: Mus musculus; conditions: uterotrophic, Active
[2] = system: Oryctolagus sp.; conditions: for LD50: acute
[3] = system: Mus musculus; conditions: for LD50: acute
[4] = system: Rattus norvegicus; conditions: for LD50 / LC50: acute
[5] = system: Rattus norvegicus; conditions: subchronic, oral, gavage
[6] = system: Rattus norvegicus; conditions: subchronic; oral; drinking water; M/F; impaired renal function and increased liver and kidney weight
[7] = reproduction developmental, duration: 2 weeks, inhalation, Sprague-Dawley
[8] = subchronic, duration: 12 weeks, Inhalation, Long-Evans
[9] = subchronic, duration: 13 weeks, oral, gavage, F, B6C3F1
[10] = subchronic, duration: 13 weeks, oral, gavage, M, B6C3F1
[11] = developmental, duration: 10 days, oral, Wistar
[12] = developmental, duration: 128 days, oral, gavage, Wistar
[13] = reproduction developmental, duration: 10 days, oral, F, Wistar
[14] = reproduction developmental, duration: 27 days, oral, gavage, F, Wistar
[15] = reproduction developmental, duration: 27 days, oral, gavage, Wistar, generation: F1
[16] = reproduction developmental, duration: 86 days, oral, gavage, Wistar
[17] = reproduction developmental, duration: 128 days, oral, gavage, F, Wistar
[18] = reproduction developmental, duration: 128 days, oral, gavage, Wistar

CC(C)(c1cc(Cl)c(O)c(Cl)c1)c1cc(Cl)c(O)c(Cl)c1 [2,2',6,6'-Tetrachlorobisphenol A]
LEL ([1]; duration: 3 days, injection, intraperitoneal): 20 mg/kg-day

O=C(Oc1ccccc1)c1ccccc1O [Phenyl salicylate]
LEL ([1]; duration: 3 days, oral): 33.3 mg/kg-day

c1ccc2sc(SSc3nc4ccccc4s3)nc2c1 [2,2'-Dithiobisbenzothiazole]
LD50 ([2]; oral): 6200 mg/kg
LD50 ([3]; injection, Intraperitoneal): 2250 mg/kg
LD50 ([3]; injection, intravenous): 180 mg/kg
NOAEL ([3]; developmental, oral, N strain): 10 mg/kg-day
LD50 ([4]; injection, Intraperitoneal): 3000 mg/kg and 2600 mg/kg
NOAEL (% diet) ([4]; developmental, duration: 22 days, oral, diet, Wistar): 1
NOAEL (% diet) ([4]; reproduction developmental, duration: 22 days, oral, diet, F, Wistar): 0.2
NOAEL ([4]; reproduction developmental, oral, Wistar, hybrid, generation: F1): 10 mg/kg-day
NOAEL ([4]; short-term, duration: 22 days, oral, diet, F, Wistar): 127 mg/kg-day

CCCCCCCCc1ccc(Nc2ccc(CCCCCCCC)cc2)cc1 [4,4'-Dioctyldiphenylamine]
NOEL ([5]; M, Sprague-Dawley, Hematology: PT increase(tendency) APTT increase): 25 mg/kg-day
LD50 ([2]; dermal, occlusive, New Zealand): > 7940 mg/kg
LD50 ([4]; oral, gavage, Sprague-Dawley): > 7940 mg/kg

CC[C@H](c1ccc(O)cc1)[C@@H](CC)c1ccc(O)cc1 [meso-Hexestrol]
LEL ([1]; duration: 1 days, injection, subcutaneous): 0.00914 mg/animal
LEL ([1]; duration: 1.2 days, injection, subcutaneous): 0.00914 mg/animal

O=C(O)c1ccc(O)cc1 [4-Hydroxybenzoic acid]
LEL ([1]; duration: 3 days, injection, subcutaneous): 5 mg/kg-day

CCCCOC(=O)CC [Butyl propionate]
LD50 ([2]; dermal, occlusive, New Zealand): > 14000 mg/kg
LD50 ([2]; dermal, occlusive, albino): > 14000 mg/kg
LD50 ([4]; dermal, occlusive, Fischer 344): > 2000 mg/kg
LD50 ([4]; oral, gavage, Fischer 344): > 5000 mg/kg
LC50 ([4]; oral, gavage, Sprague-Dawley): 12300 mg/kg
LD50 ([4]; oral, gavage, Sprague-Dawley): 11000 mg/kg
LD50 ([4]; oral, gavage, Wistar): > 14000 mg/kg
NOAEL ([4]; developmental, duration: 10 days, inhalation, Sprague-Dawley): ≥ 10600 mg/m3
LOAEL [4, 7]: 13300 mg/m3
NOAEL [4, 7]: 2660 mg/m3
LOAEL ([4]; reproduction developmental, duration: 13 weeks, inhalation, Sprague-Dawley): 3990 mg/m3
LOAEL ([4]; short-term, duration: 11 days, inhalation, Fischer 344): 4260 mg/m3

C=CCO [Allyl alcohol]
NOEL ([5]; F, Fischer 344, Hematology: Plt increase + Blood Chemistry: BUN increase25 Bile acid increase + Absolute Organ Weight: Liver increase + Relative Organ …): 1.5 mg/kg-day
NOEL ([5]; M, Fischer 344, Hematology: Plt increase + Blood Chemistry: BUN increase25 Bile acid increase + Absolute Organ Weight: Liver increase + Relative Organ …): 3 mg/kg-day
LOAEL [6]: 6.9 mg/kg-day
NOEL [6]: 4.8 mg/kg-day
LD50 ([2]; dermal): 89 mg/kg
LD50 ([3]; oral, gavage, Swiss-Webster): 96 mg/kg
LC50 ([4]; inhalation, Long-Evans): ≥ 297 mg/m3 and ≤ 333 mg/m3
LC50 ([4]; inhalation, Sherman Wistar): 594 mg/m3
LD50 ([4]; oral, Sherman Wistar): 64 mg/kg
LD50 ([4]; oral, gavage, Long-Evans): ≥ 99 mg/kg and ≤ 105 mg/kg
LD50 ([4]; oral, gavage, Osborne-Mendel): 70 mg/kg
NOAEL ([4]; chronic, duration: 15 weeks, oral, drinking water, Wistar): 11.2 mg/kg-day
LOAEL [4, 8]: 95 mg/m3
NOAEL [4, 8]: 47.5 mg/m3

CCC(C)OP(=S)([S-])OC(C)CC(C)C.CCC(C)OP(=S)([S-])OC(C)CC(C)C.[Zn+2] (stereo unspecified)
LD50 ([2]; dermal, New Zealand): > 5000 mg/kg
LD50 ([4]; oral, gavage, Sprague-Dawley): ≥ 2900 mg/kg and ≤ 3400 mg/kg

CCCCCCCCCc1cc2ccccc2c(S(=O)(=O)[O-])c1CCCCCCCCC.CCCCCCCCCc1cc2ccccc2c(S(=O)(=O)[O-])c1CCCCCCCCC.[Ba+2] [Naphthalenesulfonic acid, dinonyl-, barium salt]
LD50 ([2]; dermal, New Zealand): < 20000 mg/kg
LC50 ([4]; Inhalation, Wistar): > 21 µg/mL
LD50 ([4]; oral, diet, Sprague-Dawley): > 5000 mg/kg
LD50 ([4]; oral, gavage, Wistar): > 5000 mg/kg

Cc1ccc(N(C)C)cc1 [N,N,4-Trimethylaniline]
LD50 ([2]; dermal, New Zealand): > 2000 mg/kg
LC50 ([4]; inhalation, Sprague-Dawley): 1.4 µg/mL (≈ 10.4 µM)
LD50 ([4]; oral, Sprague-Dawley): 1650 mg/kg

CCCCCCCCCCCCCCCCN.F [1-Hexadecanamine, hydrofluoride]
LOAEL ([2]; reproduction developmental, duration: 13 days, oral, gavage, F, New Zealand): 1.2 mg/kg-day
NOAEL ([4]; reproduction developmental, duration: 10 days, oral, gavage, F, Long-Evans): 30 mg/kg-day
NOAEL ([4]; reproduction developmental, oral, gavage, Long-Evans, generation: F0): 6 mg/kg-day
NOAEL ([4]; reproduction developmental, oral, gavage, Long-Evans, generation: F1): 30 mg/kg-day

CCCCCCCCCc1cc2ccccc2c(S(=O)(=O)[O-])c1CCCCCCCCC.CCCCCCCCCc1cc2ccccc2c(S(=O)(=O)[O-])c1CCCCCCCCC.[Ca+2] [Calcium bis(dinonylnaphthalenesulphonate)]
LD50 ([2]; dermal, New Zealand): > 20000 mg/kg
LC50 ([4]; Inhalation, Wistar): > 18 µg/mL
LD50 ([4]; oral, gavage, Sprague-Dawley): > 5000 mg/kg

C=CC(=C)CCC=C(C)C [Myrcene]
LD50 ([2]; dermal, New Zealand): > 5000 mg/kg
LD50 ([3]; oral, gavage, Swiss): 5060 mg/kg
LOAEL [3, 9]: 500 mg/kg-day
NOAEL [3, 9]: 250 mg/kg-day
LOAEL [3, 10]: 1000 mg/kg-day
NOAEL [3, 10]: 500 mg/kg-day
LD50 ([4]; oral, Wistar): > 5000 mg/kg
LD50 ([4]; oral, gavage, Wistar): > 11400 mg/kg
LOAEL [4, 11]: 1200 mg/kg-day
NOAEL [4, 11]: 500 mg/kg-day
NOAEL ([4]; developmental, duration: 27 days, oral, gavage, Wistar): 250 mg/kg-day
LOAEL [4, 12]: 500 mg/kg-day
NOAEL [4, 12]: 250 mg/kg-day
LOAEL [4, 13]: 1200 mg/kg-day
NOAEL [4, 13]: 500 mg/kg-day
LOAEL [4, 14]: 1000 mg/kg-day
NOAEL [4, 14]: 500 mg/kg-day
LOAEL [4, 15]: 500 mg/kg-day
NOAEL [4, 15]: 250 mg/kg-day
LOAEL [4, 16]: 500 mg/kg-day
NOAEL [4, 16]: 300 mg/kg-day
LOAEL [4, 17]: 1000 mg/kg-day
NOAEL [4, 17]: 500 mg/kg-day
LOAEL [4, 18]: 500 mg/kg-day
NOAEL [4, 18]: 250 mg/kg-day
NOAEL ([4]; reproduction developmental, oral, gavage, Wistar): 300 mg/kg-day
LOAEL ([4]; subchronic, duration: 13 weeks, oral, gavage, Fischer 344): 250 mg/kg-day
